In patent US20240041813A1, “VERY-LONG-CHAIN POLYUNSATURATED FATTY ACIDS, ELOVANOID HYDROXYLATED DERIVATIVES, AND METHODS OF USE” (priority 2020, published 2024):
Entries after “also recorded” stand apart in the source; their conditions may differ.

How the values were obtained:
injured rat cornea = test: Rat cornea alkali burn: corneal RNA-seq, cytokine storm, NFkB/inflammation, senescence, integrin and protease genes; format: in vivo
Procedure: The rats were anesthetized by intraperitoneal injection of Ketamine (50-100 mg/kg) plus xylazine (5-10 mg/kg). A 4 mm diameter filter paper soaked in 1 N NaOH was placed on the central cornea of the right eye for 45 seconds, and then the eye was thoroughly washed with […] of saline. After injury, the rats were randomly divided into five treatment groups: vehicle; lipoxin A4 (LXA4) from Cayman Chemical (Ann Arbor, MI, USA); R,R Resolvin D6 isomer (RvD6i), R,R neuroprotection D (NPD1), and elovanoid (ELV)-N32. All lipid solutions were prepared at the final concentration of […] using PBS with the minimal contamination of ethanol by evaporating the ethanol and immediately dissolve the lipids in PBS, then vortex well for 2 min. Topical administration (20 μl) was done 3×/day for 14 days. The experiments were double-blinded with the lipid mediators coded during the whole experiments. At the end of the study, when all data was collected, the code was opened.
Injured corneas (n=5/condition) were harvested and homogenized with TRIzol (Thermo Fisher Scientific) on ice with a glass Dounce homogenizer. RNA sequencing was performed as described^14. Briefly, after mRNA extraction and determination of purity, 8 ng of total RNA was reverse transcribed, and total cDNAs were amplified using ISPCR primer, and the library was made with the Nextera XT DNA library preparation kit (Illumina, San Diego, CA, USA). The libraries were pooled with the same molarity and sequenced using the NextSeq 500/550 High Output Kit v2 (75 cycles, Illumina). After demultiplexing, RNA-seq data were aligned to the Rattus Norvegicus reference genome (.ensembl.org/pub/release-98/fasta/rattus_norvegicus/dna/) using the Subread package v2.0.1 alignment function39. The BAM files for sequencing data alignment were counted using featureCounts function of Subread tool^40 using the macOS Catalina. The raw count data were subjected to differential gene expression analysis using DESeq2 package for R^41 with the vehicle group as reference. The adjusted p-values were named as the false discover rate (FDR).

TMPRSS2 = TMPRSS2 mRNA by Taqman qPCR in human alveolar cells; format: cell-based; conditions: in the presence of IL1β
Procedure: Real-Time PCR using Taqman probes and SYBR green assay. cDNA was produced using lug of total RNA extracted by RNAeasy (Qiagen, Hilden Germany, cat #74104). The first strand of cDNA was produced using iScript™ Reverse Transcription Supermix for RT-qPCR (BioRad cat #1708840). The quantification of Sirt 1, RNF-146, Bcl2, BcL-xl was performed using SYBRgreen assay with primers designed in house (Table 1) using SsoAdvanced Universal SYBR Green Supermix (Biorad cat #1725270). The quantification of ACE2 and TMPRSS2 mRNA was performed using Taqman probes (Biorad cat #qHsaCEP0051563 & qHsaCIP0028919 respectively) labeled with FAM and standardized using PGK1 probe labeled with HEX (Biorad cat #qHsaCEP0050174).

[1] = tested on: receptor-binding domain (RBD) of the SARS-CoV-2 spike; format: cell-based, human
[2] = rat cornea, RNA-seq 14 days after injury

CC/C=C\CC(O)\C=C/C=C/C=C/C(O)C/C=C\C/C=C\CCCCCCCCCCCCC(=O)O [ELV-N32, (14Z,17Z,20R,21E,23E,25Z,27S,29Z)-20,27-dihydroxydo-triaconta-14,17,21,23,25,29-hexaenoic acid]
Furin expression (injured rat cornea; cornea injury model (FIG. 57)): remarkably decreases | 51 injury-upregulated genes (cytokines, SASP, NFkB inflammatory) (injured rat cornea; [2]): most are inhibited | Il6 and Vegfa expression (injured rat cornea; [2]): reduced | integrin gene expression (Itga5 and Itgb 1) (injured rat cornea; [2]): significantly decreased; also recorded: decrease | transcriptomic profile in PCA plot relative to control cornea (injured rat cornea; [2]): nearest to the normal cornea | Cdkn2a gene expression (p16INK4a) (injured rat cornea; rat cornea, RNA-seq normalized counts, 14 days after injury): decrease | TMPRSS2 expression (TMPRSS2): decreased | RBD of the SARS-CoV-2 spike entrance / internalized RBD [1]: diminishes | RBD protein internalization (RBD located below the membrane line) [1]: decrease
